Assay results from patent US20090035345A1, “Nuclear Receptors Agonists for Treatment of Atherosclerosis and/or Related Cardiovascular Disease” (ACADEMISCH MEDISCH CENTRUM, BUREAU, priority 2005, published 2009).
“Also recorded” adds a separate entry of the source.

What was measured:
[1] = tested on: saphenous vein smooth muscle cells; assay: Cyclic stretch-induced DNA synthesis ([3H]-thymidine incorporation) in venous SMCs; assay type: cell-based, human
Procedure: To study stretch-induced responses, smooth muscle cells were seeded in 6-well plates containing collagen Icoated flexible membranes (BioFlex® culture plates, Dunn Labortechnik GmbH, Asbach, Germany) and were stretched in the Flexercell FX3000 apparatus (Dunn Labortechnik) for 1, 2, 4, 6, or 24 h at 10% stretch at 0.5 Hz or served as control (without stretch). Silicone-based lubricant was applied to prevent friction between the membrane and loading post.
Smooth muscle cells were seeded in 6-well stretch plates and when wells were confluent, smooth muscle cells were made quiescent for 16 h in medium containing 0.5% (v/v) FBS.
The plates were transferred into the Loading Station™ and stretched for 24 h. Control plates, without stretch, were cultured under identical conditions. Thereafter, cells were labeled for 4 h with 0.5 microCi/mL [methyl-^3H]-thymidine (Amersham Biosciences).
Incorporated radioactivity was precipitated for 30 min at 4° C. with 10% (wt/v) trichloroacetic acid, washed twice with 5% (wt/v) trichloroacetic acid and dissolved in 0.5N NaOH. [^3H]-thymidine was measured by liquid scintillation counting.
When cells were infected with mock- or TR3-containing adenovirus (3×10^8 plaque-forming units) for 2 h, the cells were allowed to recover for 24 h in complete medium before they were made quiescent. Agonist treatment (6-MP) was initiated 1 h prior to stretch with 0, 1, 10, 25 microM C-DIM (stock at 40 mM in DMSO).
The following small interfering RNA (siRNA) sequences were used: TR3 siRNA, 5′-CAG UCC AGC CAU GCU CCU C dTdT-3′, and mutated control siRNA, 5′-CAG ACG AGC CUU GCU CGU C dTdT-3′ (Ambion Inc., UK). Per Flexerplate-well 1 μg of siRNA was transfected into 5×10^5 SMCs using Nucleofector reagent for SMCs (Amaxa GmbH, Cologne, Germany) as per the manufacturer's recommendations and subsequently the cells were placed in the stretch plates and were treated as described above.

[2] = tested on: human SMCs; assay: Apoptosis of SMCs, Hoechst staining of nuclei; assay type: cell-based; conditions: human, 24 h
Procedure: Human SMCs were explanted from umbilical cord arteries. Cells were cultured in DMEM (Invitrogen Life Technology, Breda, The Netherlands) with 10% (v/v) fetal bovine serum (FBS) with penicillin and streptomycin (Invitrogen). Cells were used at passages five to seven. […] To determine cellular viability, cells were washed with PBS and subsequently incubated in medium in the presence of 0.5-mg/ml 3-(4,5-dimethylthiazol-2-yl)-2,5-diphenyltetrazolium bromide (MTT; Sigma Diagnostics, St. Louis). After two hours, medium was discarded, formazan crystals were dissolved in isopropanol and optical density was measured at 590 nm. Apoptosis was induced by incubating cells for 24 hours in medium with 0.25 μM staurosporine (Sigma). Subsequently, SMCs were fixed, stained with Hoechst dye and the relative number of apoptotic nuclei was determined.

[3] = In vitro release from drug-eluting poly(ε-caprolactone) cuffs; assay type: physicochemical; conditions: 0.5% and 1% cuffs, 4-week period
Procedure: Briefly, 6-MP was dissolved at different concentrations in blended, molten drug-polymer mix and cuffs were designed to fit around the femoral artery of mice. Drug-eluting cuffs are shaped as longitudinally cut cylinders with an internal diameter of 0.5 mm, an external diameter of 1.0 mm, a length of 2.0 mm and a weight of approximately 5.0 mg. Drug-eluting cuffs were loaded with 0.5% (w/w) and 1% (w/w) 6-MP and the in vitro release profiles were determined for a 4-week period, as described before (n=5/group).

[4] = tested on: cuff-induced neointima formation in mouse femoral artery; assay: Femoral artery cuff murine model, 6-MP-eluting cuffs; assay type: in vivo; conditions: for cuff-induced neointima formation (intimal area): 4 weeks
Description: All animal work was approved by AMC institutional regulatory authority and carried out in compliance with guidelines issued by the Dutch government. Wild-type FVB mice (Wt), transgenic mice expressing the full-length Nur77 gene (Nur77), or mice expressing a dominant-negative variant of Nur77 (ΔTA) (the latter two strains under control of the SM22α promoter, which directs the expression of transgenes specific to SMCs), in an FVB background, were used for experiments. Male mice, 10-12 weeks old, were fed a standard chow diet. At the time of surgery, mice were anaesthetized with an intraperitoneal injection of 5 mg/kg Dormicum (Roche, Basel, Switzerland), 0.5 mg/kg Dormitor (Orion, Helsinki, Finland) and 0.05 mg/kg Fentanyl (Janssen, Geel, Belgium). The femoral artery was dissected from its surroundings and loosely sheathed with a non-constrictive cuff. Either a control, empty cuff or a 6-MP eluting cuff (0.5% or 1% w/w) was used (n=6/group).
Wt and Nur77-overexpressing transgenic mice were sacrificed at 28 days after cuff placement, whereas ATA transgenic mice were sacrificed at 14 days after surgery. The thorax was opened and a mild pressure-perfusion (100 mmHg) with 4% (v/v) formaldehyde in 0.9% (w/v) NaCl was performed for 5 min by cardiac puncture. After perfusion, femoral arteries were harvested, fixed overnight in 4% (v/v) formaldehyde, dehydrated and paraffin embedded. Serial cross-sections (5 μm thick) for histological analysis were used throughout the entire length of the cuffed femoral artery. All samples were routinely stained with hematoxylin-phloxine-saffron (HPS). Weigert's elastin staining was used to visualize elastic laminae. Ten equally spaced cross-sections were used in all mice to quantify intimal lesions. Using image analysis software (Leica Qwin, Wetzlar, Germany), total cross sectional medial area was measured between the external and internal elastic lamina; total cross sectional intimal area was measured between the endothelial cell monolayer and the internal elastic lamina.
In vitro experiments were repeated at least twice and are presented as mean±SD and were analyzed by the Student t-test. Animal experiments are presented as mean±SEM and were analyzed using the Mann-Whitney U-test (SPSS 11.5 for Windows). P-values less than 0.05 were regarded as statistically significant.

[5] = Nur77 transgenic mice, 0.5% 6-MP cuff
[6] = Nur77 transgenic mice, 1% 6-MP cuff

Sc1ncnc2nc[nH]c12 [6-MP, 6-mercaptopurine]
effect on stretch-induced DNA synthesis after TR3 knockdown ([1]; venous SMCs transfected with TR3-siRNA): completely abolishes the effect of 6-MP; also recorded: no longer inhibits DNA synthesis | stretch-induced DNA synthesis ([1]; venous SMCs, 24 h cyclic stretch, 25 μM 6-MP): completely inhibited | stretch-induced DNA synthesis ([3H]-thymidine incorporation) ([1]; venous SMCs, 24 h cyclic stretch, 6-MP at various concentrations): reduced stretch-mediated proliferation in a dose-dependent manner | apoptosis (apoptotic nuclei) [2]: 3%±2% | in vitro release profile [3]: sustained and dose-dependent release | intima/media ratio [4, 5]: 0.47±0.05 | cuff-induced neointima formation (intimal area) [4, 5]: substantially reduced | intima/media ratio [4, 6]: 0.30±0.06 | cuff-induced neointima formation (intimal area) [4, 6]: significant inhibition | medial areas of the cuffed femoral arteries ([4]; Wt and Nur77 transgenic mice): No changes | intima/media ratio ([4]; Wt mice, 0.5% 6-MP cuff): 0.75±0.05 | cuff-induced neointima formation (intimal area) ([4]; Wt mice, 0.5% 6-MP cuff): did not show a decrease | intima/media ratio ([4]; Wt mice, 1% 6-MP cuff): 0.51±0.03 | cuff-induced neointima formation (intimal area) ([4]; Wt mice, 1% 6-MP cuff): significant inhibition | neointima formation (intimal area) ([4]; ΔTA transgenic mice, 0.5% 6-MP cuff, 2 weeks): no significant effect | neointima formation (intimal area) ([4]; ΔTA transgenic mice, 1% 6-MP cuff, 2 weeks): no significant effect | media thickness ([4]; ΔTA transgenic mice, 2 weeks): did not change
